From patent US11919902B2, “Aryl-bipyridine amine derivatives as phosphatidylinositol phosphate kinase inhibitors” (HiberCell, Inc., priority 2017, dated 2024) come the findings set out here.

The target in one assay is T1, GST tagged PIP4KtypeIIB (Homo sapiens, UniProt P78356).
T1 construct: made in house; host or cells: E. coli
T1 sequence (P78356 1-416): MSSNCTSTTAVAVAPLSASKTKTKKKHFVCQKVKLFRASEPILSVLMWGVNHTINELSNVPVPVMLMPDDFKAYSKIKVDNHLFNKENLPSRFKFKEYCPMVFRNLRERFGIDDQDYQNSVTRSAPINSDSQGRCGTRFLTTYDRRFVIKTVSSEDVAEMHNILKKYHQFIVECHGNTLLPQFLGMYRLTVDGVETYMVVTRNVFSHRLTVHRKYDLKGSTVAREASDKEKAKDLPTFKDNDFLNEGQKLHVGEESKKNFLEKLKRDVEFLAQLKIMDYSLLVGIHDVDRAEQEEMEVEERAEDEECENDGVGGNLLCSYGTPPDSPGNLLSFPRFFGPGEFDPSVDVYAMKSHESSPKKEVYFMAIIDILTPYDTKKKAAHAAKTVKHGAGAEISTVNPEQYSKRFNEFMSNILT
As to the kind of experiment: Trans-FI P kinase assay PIP4K2B (PIP4KtypeIIB inhibition assay). The class given is biochemical. To be noted: Table 4; compounds listed under IC50 range headings; 100 uM GTP, 5 nM PIP4KIIB; read-out: Trans-FI P kinase assays: PIP4K2B IC50. In outline: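 Purified GST-PIP4KIIB (5 nM final), 1 h preincubation with compound at 27 C, then 2 h reaction with 100 uM GTP and 80 uM PI5P plus DOPE carrier lipid in pH 7.3 HEPES/MgCl2/Triton buffer with 5% DMSO. GDP read by Transcreener FI fluorescence against a calibration curve; IC50 from % no-inhibitor activity vs log concentration.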

Another assay addresses T2, GST tagged PIP4KtypeIIA (Homo sapiens, UniProt P48426).
T2 construct: made in house; host or cells: E. coli
T2 sequence (P48426 1-406): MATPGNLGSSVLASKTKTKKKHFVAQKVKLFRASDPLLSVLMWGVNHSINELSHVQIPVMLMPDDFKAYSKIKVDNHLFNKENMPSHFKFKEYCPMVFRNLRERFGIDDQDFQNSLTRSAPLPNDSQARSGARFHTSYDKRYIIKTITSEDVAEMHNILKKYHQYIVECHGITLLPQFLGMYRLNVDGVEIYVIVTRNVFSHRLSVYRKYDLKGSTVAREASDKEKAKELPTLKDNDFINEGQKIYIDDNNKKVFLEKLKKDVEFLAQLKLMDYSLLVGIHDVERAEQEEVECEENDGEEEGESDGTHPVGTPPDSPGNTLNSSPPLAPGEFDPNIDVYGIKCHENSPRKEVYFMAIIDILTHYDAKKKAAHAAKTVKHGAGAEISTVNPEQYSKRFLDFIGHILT
As to the kind of experiment: ADP-glo kinase assay PIP4K 2A (PIP4KtypeIIA inhibition assay). The settings on record: Table 3; compounds listed under IC50 range headings; 10 uM ATP, 0.5 nM PIP4KIIA. It is filed as biochemical. In outline: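 E. coli-expressed GST-PIP4KtypeIIA (0.5 nM final) was preincubated 1 h at 27 °C with compound (up to 4.8 μM, 5% DMSO) in PI5P/DOPE lipid in 50 mM HEPES pH 7.3 with 10 mM MgCl2. The reaction was started with 10 μM ATP (final) and run 1 h. ADP was read by ADP-Glo luminescence via a calibration curve, and IC50 was taken from % residual activity.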
Background: ADP-Glo first removes unused ATP, then detects ADP through luciferase.

A word on the IC50: it is the midpoint of a concentration-inhibition curve.

As to `Cc1nc(-c2cncc(-c3ccc(N4CCCC4=O)cc3)c2)c2sc(N3CCCCC3)nc2n1` [Example 286, 1-(4-(5-(5-methyl-2-(piperidin-1-yl)thiazolo[4,5-d]pyrimidin-7-yl)pyridin-3-yl)phenyl)pyrrolidin-2-one], the half-maximal inhibitory concentration (IC50) at GST tagged PIP4KtypeIIB was in the range of 100 to 1000 nM; at GST tagged PIP4KtypeIIA, 10 to 100 nM.
For `O=C(Nc1nccc(-c2cncc(-c3ccc(N4CCCC4=O)cc3)c2)n1)C1CCC1` [Example 287, N-(4-(5-(4-(2-oxopyrrolidin-1-yl)phenyl)pyridin-3-yl)pyrimidin-2-yl)cyclobutanecarboxamide], in that order: 100 to 1000 nM and 100 to 1000 nM.
For `CCc1c(C)[nH]c2c(-c3cncc(-c4ccc(N5CCCC5=O)cc4)c3)cnn2c1=O` [Example 288, 6-ethyl-5-methyl-3-(5-(4-(2-oxopyrrolidin-1-yl)phenyl)pyridin-3-yl)pyrazolo[1,5-a]pyrimidin-7(4H)-one], in that order: 100 to 1000 nM and 100 to 1000 nM.
As for `O=C1CCCN1c1ccc(-c2cncc(-c3ncnc4nc(C5CCC5)[nH]c34)c2)cc1` [Example 289, 1-(4-(5-(8-cyclobutyl-7H-purin-6-yl)pyridin-3-yl)phenyl)pyrrolidin-2-one], the IC50 at GST tagged PIP4KtypeIIB was in the range of 1000 to 2500 nM; at GST tagged PIP4KtypeIIA, 2500 to 5000 nM.
In the case of `COC(=O)c1cc2c(-c3cncc(-c4ccc(N5CCCC5=O)cc4)c3)c(C)cnc2[nH]1` [Example 290, methyl 5-methyl-4-(5-(4-(2-oxopyrrolidin-1-yl)phenyl)pyridin-3-yl)-1H-pyrrolo[2,3-b]pyridine-2-carboxylate], the half-maximal inhibitory concentration (IC50) at GST tagged PIP4KtypeIIB and against GST tagged PIP4KtypeIIA was 100 to 1000 nM each time.
For `CC(O)c1cnc2[nH]c(C3CC3)c(-c3cncc(-c4ccc(N5CCCC5=O)cc4)c3)c2c1` (stereo not drawn) [Example 291, 1-(4-(5-(2-cyclopropyl-5-(1-hydroxyethyl)-1H-pyrrolo[2,3-b]pyridin-3-yl)pyridin-3-yl)phenyl)pyrrolidin-2-one], the IC50 at GST tagged PIP4KtypeIIB and at GST tagged PIP4KtypeIIA was 10 to 100 nM in each case.
Take `O=C1CCCN1c1ccc(-c2cncc(-c3csc4ncccc34)c2)cc1` [Example 292, 1-(4-(5-(thieno[2,3-b]pyridin-3-yl)pyridin-3-yl)phenyl)pyrrolidin-2-one]: the half-maximal inhibitory concentration (IC50) at GST tagged PIP4KtypeIIB and on GST tagged PIP4KtypeIIA was 100 to 1000 nM each time.
`C[C@@H](O)c1cnc2c(c1)c(-c1cncc(-c3ccc(N4CCCC4=O)cc3)c1)cn2C` [Example 293, (R)-1-(4-(5-(5-(1-hydroxyethyl)-1-methyl-1H-pyrrolo[2,3-b]pyridin-3-yl)pyridin-3-yl)phenyl)pyrrolidin-2-one]: the half-inhibitory concentration (IC50) at GST tagged PIP4KtypeIIB and against GST tagged PIP4KtypeIIA was 100 to 1000 nM in each case.
Turning to `C[C@H](O)c1cnc2c(c1)c(-c1cncc(-c3ccc(N4CCCC4=O)cc3)c1)cn2C` [Example 294, (S)-1-(4-(5-(5-(1-hydroxyethyl)-1-methyl-1H-pyrrolo[2,3-b]pyridin-3-yl)pyridin-3-yl)phenyl)pyrrolidin-2-one], the IC50 at GST tagged PIP4KtypeIIB and on GST tagged PIP4KtypeIIA was 100 to 1000 nM each time.
`CN(C)S(=O)(=O)c1cnc2[nH]cc(-c3cncc(-c4ccc(N5CCCC5=O)cc4)c3)c2c1` [Example 295, N,N-dimethyl-3-(5-(4-(2-oxopyrrolidin-1-yl)phenyl)pyridin-3-yl)-1H-pyrrolo[2,3-b]pyridine-5-sulfonamide]: the concentration for half-maximal inhibition (IC50) on GST tagged PIP4KtypeIIB lay within 1000 to 2500 nM; against GST tagged PIP4KtypeIIA, 100 to 1000 nM.
For `COC(=O)c1cc2c(-c3cncc(-c4ccc(N5CCCC5=O)cc4)c3)c(Cl)cnc2[nH]1` [Example 296, methyl 5-chloro-4-(5-(4-(2-oxopyrrolidin-1-yl)phenyl)pyridin-3-yl)-1H-pyrrolo[2,3-b]pyridine-2-carboxylate], in that order: 100 to 1000 nM and 100 to 1000 nM.
For `O=C(N[C@H]1C[C@H](c2ccccc2)C1)c1cc2c(-c3cncc(-c4ccc(N5CCCC5=O)cc4)c3)ccnc2[nH]1` [Example 297, 4-(5-(4-(2-oxopyrrolidin-1-yl)phenyl)pyridin-3-yl)-N-((1r,3r)-3-phenylcyclobutyl)-1H-pyrrolo[2,3-b]pyridine-2-carboxamide], the results for the 50% inhibitory concentration (IC50) at GST tagged PIP4KtypeIIB and against GST tagged PIP4KtypeIIA were greater than 5000 nM and 1000 to 2500 nM, respectively.
